Test results taken from ChEMBL document CHEMBL1201862, “PubChem BioAssay data set” (2004).
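96-well plates; 48 h exposure; 5 concentrations. Endpoints by linear interpolation between flanking doses. Not reached: highest tested concentration assigned. At the GI50, growth is halved.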 The source made the active and inactive calls. Rule as the data show it: active = GI50 up to about 1.1 µM and inactive = higher.

What was measured:
Assay in all cases: NCI anticancer screen, dose series, 48 h
[1] = test system: HCT-116
[2] = test system: 786-0
[3] = test system: HL-60
[4] = test system: HCC 2998
[5] = test system: EKVX
[6] = test system: HOP-92
[7] = test system: HT-29
[8] = test system: SNB-19
[9] = test system: MDA-MB-435
[10] = test system: NCI-H460
[11] = test system: LOX IMVI
[12] = test system: OVCAR-8
[13] = test system: UO-31
[14] = test system: RXF 393
[15] = test system: A549
[16] = test system: SF-268
[17] = test system: UACC-257
[18] = test system: SK-MEL-5
[19] = test system: KM12
[20] = test system: NCI-H226
[21] = test system: RPMI-8226
[22] = test system: MCF7
[23] = test system: OVCAR-5
[24] = test system: K562
[25] = test system: PC-3
[26] = test system: NCI-H522
[27] = test system: ACHN
[28] = test system: HOP-62
[29] = test system: A498
[30] = test system: SF-539
[31] = test system: OVCAR-4
[32] = test system: MOLT-4
[33] = test system: Malme-3M
[34] = test system: TK-10
[35] = test system: DU-145
[36] = test system: NCI-H23
[37] = test system: SF-295
[38] = test system: SN12C
[39] = test system: SW-620
[40] = test system: MDA-MB-231
[41] = test system: SNB-75
[42] = test system: BT-549
[43] = test system: U-251
[44] = test system: OVCAR-3
[45] = test system: NCI/ADR-RES
[46] = test system: CAKI-1
[47] = test system: IGROV-1
[48] = test system: SR
[49] = test system: COLO 205
[50] = test system: HCT-15
[51] = test system: MDA-N
[52] = test system: Hs-578T
[53] = test system: CCRF-CEM
[54] = test system: SK-MEL-28
[55] = test system: SK-MEL-2
[56] = test system: UACC-62

## Nc1nc(O)c([I+]c2ccccc2)c(=O)[nH]1
[1]
  GI50: > 100 µM (inactive)
[2]
  GI50: > 100 µM (inactive)
[3]
  GI50: > 100 µM (inactive)
[4]
  GI50: > 100 µM (inactive)
[5]
  GI50: > 100 µM (inactive)
[6]
  GI50: > 100 µM (inactive)
[7]
  GI50: > 100 µM (inactive)
[8]
  GI50: > 100 µM (inactive)
[9]
  GI50: > 100 µM (inactive)
[10]
  GI50: > 100 µM (inactive)
[11]
  GI50: > 100 µM (inactive)
[12]
  GI50: > 100 µM (inactive)
[13]
  GI50: 85.1 µM (inactive)
[14]
  GI50: > 100 µM (inactive)
[15]
  GI50: > 100 µM (inactive)
[16]
  GI50: > 100 µM (inactive)
[17]
  GI50: > 100 µM (inactive)
[18]
  GI50: > 100 µM (inactive)
[19]
  GI50: > 100 µM (inactive)
[20]
  GI50: > 100 µM (inactive)
[21]
  GI50: > 100 µM (inactive)
[22]
  GI50: > 100 µM (inactive)
[23]
  GI50: > 100 µM (inactive)
[24]
  GI50: > 100 µM (inactive)
[25]
  GI50: > 100 µM (inactive)
[26]
  GI50: > 100 µM (inactive)
[27]
  GI50: > 100 µM (inactive)
[28]
  GI50: > 100 µM (inactive)
[29]
  GI50: > 100 µM (inactive)
[30]
  GI50: > 100 µM (inactive)
[31]
  GI50: > 100 µM (inactive)
[32]
  GI50: > 100 µM (inactive)
[33]
  GI50: > 100 µM (inactive)
[34]
  GI50: > 100 µM (inactive)
[35]
  GI50: > 100 µM (inactive)
[36]
  GI50: > 100 µM (inactive)
[37]
  GI50: > 100 µM (inactive)
[38]
  GI50: > 100 µM (inactive)
[39]
  GI50: > 100 µM (inactive)
[40]
  GI50: > 100 µM (inactive)
[41]
  GI50: > 100 µM (inactive)
[42]
  GI50: 57.1 µM (inactive)
[43]
  GI50: > 100 µM (inactive)
[44]
  GI50: > 100 µM (inactive)
[45]
  GI50: > 100 µM (inactive)
[46]
  GI50: > 100 µM (inactive)
[47]
  GI50: > 100 µM (inactive)
[48]
  GI50: > 100 µM (inactive)
[49]
  GI50: > 100 µM (inactive)
[50]
  GI50: > 100 µM
[51]
  GI50: > 100 µM (inactive)
[52]
  GI50: > 100 µM (inactive)
[53]
  GI50: > 100 µM (inactive)
[54]
  GI50: > 100 µM (inactive)

## Cc1cccc2cc3c(ccc4ccccc43)c[n+]12
[1]
  GI50: 36.9 µM (inactive)
[2]
  GI50: 18 µM (inactive)
[3]
  GI50: 48.4 µM (inactive)
[4]
  GI50: 16.3 µM (inactive)
[5]
  GI50: 4.61 µM (inactive)
[7]
  GI50: 24.7 µM (inactive)
[8]
  GI50: 6.87 µM (inactive)
[9]
  GI50: 33.4 µM (inactive)
[10]
  GI50: 27.2 µM (inactive)
[11]
  GI50: 50 µM (inactive)
[55]
  GI50: 20.3 µM (inactive)
[12]
  GI50: 15.4 µM (inactive)
[13]
  GI50: 30.1 µM (inactive)
[14]
  GI50: 53 µM (inactive)
[15]
  GI50: 5.86 µM (inactive)
[16]
  GI50: 2.83 µM (inactive)
[17]
  GI50: 14 µM (inactive)
[18]
  GI50: 5.65 µM (inactive)
[19]
  GI50: 2.75 µM (inactive)
[21]
  GI50: 22.5 µM (inactive)
[56]
  GI50: 23 µM (inactive)
[22]
  GI50: 13.5 µM (inactive)
[23]
  GI50: > 100 µM (inactive)
[24]
  GI50: 30.1 µM (inactive)
[25]
  GI50: 30.9 µM (inactive)
[26]
  GI50: 9.25 µM (inactive)
[27]
  GI50: 65.3 µM (inactive)
[28]
  GI50: 7.89 µM (inactive)
[30]
  GI50: 16.7 µM (inactive)
[32]
  GI50: 4.89 µM (inactive)
[33]
  GI50: 1.77 µM (inactive)
[34]
  GI50: > 100 µM (inactive)
[35]
  GI50: 64.6 µM (inactive)
[36]
  GI50: 7.6 µM (inactive)
[37]
  GI50: 9.86 µM (inactive)
[38]
  GI50: 3.18 µM (inactive)
[39]
  GI50: 21.3 µM (inactive)
[40]
  GI50: 47.5 µM (inactive)
[41]
  GI50: 6.56 µM (inactive)
[42]
  GI50: 7.08 µM (inactive)
[43]
  GI50: 2.99 µM (inactive)
[44]
  GI50: 2.06 µM (inactive)
[45]
  GI50: > 100 µM (inactive)
[47]
  GI50: 47.1 µM (inactive)
[48]
  GI50: 6.43 µM (inactive)
[49]
  GI50: 13.3 µM (inactive)
[50]
  GI50: > 100 µM
[51]
  GI50: 37.9 µM (inactive)
[52]
  GI50: 5.38 µM (inactive)
[53]
  GI50: 15.5 µM (inactive)
[54]
  GI50: 14.7 µM (inactive)
